The subject of test [1] is U87-MG/eGFP-fLuc cells. The test is described as follows: Reversibility of TTFields-induced uptake. The test is classed as cell-based, human. The note with it: TTFields 24 h vs none vs TTFields 24 h followed by no TTFields 24 h. The procedure: To assess the reversibility of the effect of TTFields on cancer cells, U87-MG/eGFP-fLuc cells were subjected to three conditions: (1) No TTFields exposure, standard cell culture conditions (37° C., […], 5% CO2), (2) TTFields exposure for 24 h and (3) TTFields exposure for 24 h followed by no TTFields exposure for 24 h. The readouts of BLI, PpIX fluorescence (5-ALA product) and Dextran-FITC (4 kDa) fluorescence were acquired. All experimental conditions were done in triplicate. […] Here, NS=not significant; BLI=bioluminescent imaging; eGFP=enhanced green fluorescence protein; fLuc=firefly luciferase; 5-ALA=5 aminolevulinic acid; FITC=fluorescein isothiocyanate; PpIX=protoporphyrin IX; and FL=fluorescence.
In vitro tumor treating field apparatus: The coverslips were transferred to a ceramic dish of the Inovitro™ system, which in turn was mounted onto Inovitro™ base plates (Novocure Ltd., Haifa, Israel). Tumor treating fields at 200 kHz (1-4 V/cm) were applied through an Inovitro™ power generator. Incubator ambient temperatures spanned 20-27° C. with a target temperature of 37° C. in the ceramic dishes upon application of the TTFields. Duration of TTFields exposure lasted anywhere from 0.5 to 72 h, after which coverslips were removed and processed for the appropriate bioassays (see below). […]

The subject of test [2] is U87-MG cells on PCS-201 fibroblasts. The test is described as follows: 5-ALA uptake (PpIX fluorescence), glioblastoma-fibroblast co-culture. The test is classed as cell-based, human. The procedure: During glioblastoma resection in patients, 5-ALA is used to aid neurosurgeons in delineating between the tumors and surrounding normal brain tissue. Likewise, to distinguish differences in 5-ALA uptake between glioblastoma and normal cells, a co-culture was developed where U87-MG cells were seeded in the center of a bed of PCS-201 fibroblasts and were subjected to TTFields or to no TTFields. Fluorescent and brightfield photomicrographs confirmed the presence of discrete glioblastoma vs. fibroblast cell regions in the co-culture set-up.
In particular, without TTFields exposure, the GBM cells formed many pockets of adherent neurospheres as was previously reported. […] To generate the data depicted in FIG. 18B, fluorescent panels of 5-ALA uptake (and subsequent PpIX fluorescence, Ex=558 nm, Em=583 nm) for no TTFields and TTFields were obtained. Duration of exposures are 2, 6, and 24 h. Quantification of time course of PpIX accumulation (and thus accumulation of fluorescent flux as expressed as photons/s) in the glioblastoma-fibroblast co-culture platform under TTFields exposed vs. unexposed conditions (p<0.001). Statistical analyses consisted of two-way ANOVA for no TTFields vs. TTFields conditions, and n=3 experiments per time point.

Test [3] relates to U87-MG cells. The test is described as follows: 5-ALA uptake (PpIX fluorescence), single culture. The test is classed as cell-based, human. Here is the method: Experiments were performed to determine the effects of TTFields on uptake of 5-ALA (as measured by PpIX accumulation and its resultant fluorescence) in glioblastoma cells. Because it is difficult to distinguish the margin between tumor and normal cells using the present 5-ALA bioassay, the measurement of PpIX fluorescence was used to address this issue. Investigations were run to determine whether permeation of 5-ALA through the cellular membrane and into the glioblastoma cells could be increased with TTFields exposure. U87-MG cells were exposed or unexposed to TTFields, each for durations of 6-24 h.
To generate the data depicted in FIG. 18A, protoporphyrin IX (PpIX) fluorescence panels were obtained for TTFields-unexposed vs. TTFields-exposed U87-MG cells after 6 and 24 h of exposure. […] All monovariant statistical comparisons between no TTFields vs. TTFields samples done by Student's t-test for n=3 experiments per time point.

Test [4] relates to MDA-MB-435 human melanoma cell line cells. Nature of the test: 7-AAD accumulation by flow cytometry. The format is cell-based. The procedure: FIG. 22A depicts the results of an experiment performed to determine how alternating electric fields affect the permeability of the cell membranes of MDA-MB-435 human melanoma cell line cells. In this experiment, MDA-MB-435 cells were treated with an alternating electric field at 150 kHz with a field strength of 1.62 V/cm for 24 hours, at an ambient temperature of 18° C. and a dish temperature of 37° C. (The dish temperature in this and other examples is higher than the ambient temperature due to heating caused by the alternating electric fields.) After the first 23.75 hours, 7-AAD was added to the culture and incubated for 15 minutes during which time the alternating electric fields was continued (to complete the 24 hour period). After this 15 minute period, alternating electric field application was terminated and the cells were incubated at room temperature for an additional 15 minutes.
In a variation of this experiment, MDA-MB-435 human melanoma cell line cells were treated with an alternating electric field at 150 kHz with a field strength of 1.62V/cm for 24 hours, at an ambient temperature of 18° C. and a dish temperature of 37° C. After this 24 hour period, the alternating electric fields were turned off for 15 minutes, after which the 7-AAD was added. After waiting an additional 15 minutes, the percentage of cells with increased accumulation of the fluorescent 7-AAD was determined using flow cytometry.

The subject of test [5] is U87-MG cells. Nature of the test: 7-AAD accumulation by flow cytometry. The test is classed as cell-based, human. The note with it: 300 kHz, 1.62 V/cm RMS, 24 h; only sample incubated with 7-AAD while subjected to field. Here is the method:
FIG. 21D depicts the results of an experiment to test how quickly the permeability drops back down after cessation of the alternating electric fields. More specifically, 7-Aminoactinomycin D (7-AAD) is a fluorescent chemical compound with a strong affinity for DNA. […] In this experiment, the cells were treated with an alternating electric field at 300 kHz with a field strength of 1.62 V/cm RMS for 24 hours, at an ambient temperature of 18° C. 7-AAD was introduced into samples at five different times: 15 minutes prior to the cessation of the alternating electric field; immediately after cessation of the alternating electric field; and 15, 30, and 60 minutes after cessation of the alternating electric field. In each case, the cells were incubated with 7-AAD for 30 minutes after introduction of the 7-AAD, followed by flow cytometry analysis of the percentage of cells with increased accumulation of the fluorescent 7-AAD for each of the different timings.
In this experiment, the cells were treated with an alternating electric field at different frequencies with a field strength of 1.62 V/cm RMS for a total of 24 hours, at an ambient temperature of 18° C. and a dish temperature of 37° C. After the first 23.75 hours, 7-AAD was added to the culture and incubated for 15 minutes during which time the alternating electric fields was continued (to complete the 24 hour period). […]

The test system of the next test is GBM39 cells. Nature of the test: Drug sensitivity with TTFields. The format is cell-based, human. Conditions: TTFields for 3 days vs no TTFields.
In a further test the test system is U87-MG/GFP-Luc cells. The test is described as follows: Drug sensitivity / synergy with TTFields. The test is classed as cell-based, human.
In the next test the test system is GBM39/Luc cells. The test is described as follows: Drug sensitivity / synergy with TTFields. The format is cell-based, human.
In test [6] the test system is U87-MG/eGFP-fLuc cells. The test is described as follows: Annexin-V-APC binding (apoptosis positive control). The format is cell-based, human. The note with it: 21 μM, TTFields-unexposed samples.
Protocol: Initially, the impact of TTFields on the binding of Annexin-V-APC to the membrane of U87-MG/eGFP-fLuc cells was measured. Annexin-V-APC binding is a signature of early apoptosis which is characterized by ruffling of the membrane.
The subject of a further test is human glioblastoma cells. The test is described as follows: Growth inhibition by TTFields plus Withaferin A. The format is cell-based.
For test [7], the system named is MDA-MB-435 cells, wild type. The test is described as follows: Intracellular accumulation of doxorubicin. The test is classed as cell-based, human. Conditions: 10 μM, one hour; 150 kHz, 1.62 V/cm fields.
For test [8], the system named is MDA-MB-435 cells, doxorubicin resistant. The test is described as follows: Intracellular accumulation of doxorubicin. The format is cell-based, human. Conditions: 10 μM, one hour; 150 kHz, 1.62 V/cm fields.
For the next test, the system named is MDA-MB-235 cells. The test is described as follows: Drug sensitivity / synergy with TTFields. The test is classed as cell-based.
For another test, the system named is MES-SA cells. Nature of the test: Intracellular accumulation of doxorubicin. The test is classed as cell-based. Conditions: 10 μM, one hour; 150 kHz, 1.62 V/cm RMS, 24 hours.
In another test the test system is MCF-7 cells, wild type. The test is described as follows: Intracellular accumulation of mitoxantrone. The note with it: 2 μM, one hour; 150 kHz, 1.62 V/cm fields. The test is classed as cell-based, human. Here is the method: (§1) FIG. 22C depicts the results of a similar experiment using MCF-7 human breast adenocarcinoma cell line cells and mitoxantrone (444.481 g/mol). In this experiment, both wild type and mitoxantrone resistant variants of MCF-7 cells were treated with an alternating electric field at 150 kHz with a field strength of 1.62 V/cm for 23 hours. After this 23 hour period, mitoxantrone at a concentration of 2 μM was added and incubated for one hour, during which time the alternating electric fields was continued. The intracellular accumulation of mitoxantrone was then measured. The intracellular accumulation of mitoxantrone increased for both the wild type cells (compare bar 1 to bar 3) and the mitoxantrone resistant cells (compare bar 2 to bar 4).

Test [9] has as its system MCF-7 cells, mitoxantrone resistant. Nature of the test: Intracellular accumulation of mitoxantrone. The test is classed as cell-based, human. Conditions: 2 μM, one hour; 150 kHz, 1.62 V/cm fields. Here is the method: as §1
[10] abbreviates: TTFields for 3 days vs no TTFields.

Protocol for MES-SA cells: FIG. 26C depicts the results of another experiment performed to determine how 150 kHz alternating electric fields affect the permeability of the cell membranes of MES-SA cells to doxorubicin (543.52 g/mol). In this experiment, MES-SA cells were treated with an alternating electric field at 150 kHz with a field strength of 1.62 V/cm RMS for 24 hours. After the first 23 hours, doxorubicin at a concentration of 10 μM was added and incubated for one hour during which time the alternating electric fields was continued (to complete the 24 hour period). The intracellular accumulation of doxorubicin was then measured.

For the compound `NCC(=O)CCC(=O)O` [5-ALA, 5-aminolevulinic acid], in the test with U87-MG/eGFP-fLuc cells [1], the “reversibility of increased uptake” value was “reversibly increase uptake”. Moreover, the “ratio of PpIX fluorescence intensity, U87-MG cells over PCS-201 fibroblast cells” value in [2] (24 h TTFields vs no TTFields, p=0.043) was “significantly increased”. The “rate of PpIX fluorescence intensity increase” value in test [2] (TTFields-exposed vs unexposed co-cultures, 2, 6, 24 h) is recorded as “significantly augmented”. The “uptake of 5-ALA (PpIX fluorescence)” value with U87-MG cells [3] (6 h TTFields vs no TTFields, p=0.047) is given as “significantly increased uptake”; with U87-MG cells [3] (24 h TTFields vs no TTFields, p=0.011), “increase was maintained”.
As for `Cc1c2oc3c(C)c(N)cc(C(=O)N[C@@H]4C(=O)N[C@H](C(C)C)C(=O)N5CCC[C@H]5C(=O)N(C)CC(=O)N(C)[C@@H](C(C)C)C(=O)O[C@@H]4C)c3nc-2c(C(=O)N[C@@H]2C(=O)N[C@H](C(C)C)C(=O)N3CCC[C@H]3C(=O)N(C)CC(=O)N(C)[C@@H](C(C)C)C(=O)O[C@@H]2C)c(N)c1=O` [7-AAD, 7-Aminoactinomycin D], the “percentage of cells with increased accumulation of 7-AAD” value in [4] (150 kHz, 1.62V/cm, 24 h, 7-AAD added 15 minutes after fields turned off) is listed as approximately 20%; in [4] (150 kHz, 1.62 V/cm, 24 h, 7-AAD added for last 15 minutes of field) it was approximately 66%; in test [4] (control, alternating electric fields not applied), “less than 5%”. The “accumulation of 7-AAD” value in the test with U87-MG cells [5] is listed as “significant increase in accumulation”.
For the compound `O=NN(CCCl)C(=O)NC1CCCCC1` [Lomustine], the “sensitivity of cells to drug” value in the test with GBM39 cells, in the test on pcGBM2/GFP-Luc cells (setting [10]) and in the test on U87-MG/GFP-Luc cells (setting [10]) was “improves the sensitivity” throughout.
In the case of `CC1=C(CO)C(=O)O[C@@H]([C@@H](C)[C@H]2CC[C@H]3[C@@H]4C[C@H]5O[C@]56[C@@H](O)C=CC(=O)[C@]6(C)[C@H]4CC[C@]23C)C1` [Withaferin A], the “synergy of TTFields plus drug” value in the test on GBM39/Luc cells, in the test with pcGBM2/GFP-Luc cells and in the test with U87-MG/GFP-Luc cells was “synergy was found” in each case. The “Annexin-V-APC binding visualized via fluorescence microscopy” value in the test on U87-MG/eGFP-fLuc cells [6] was “could be visualized”. Further, in the test on human glioblastoma cells, the “growth of human glioblastoma cells, TTFields in conjunction with compound” value is on record as “synergistically inhibited the growth”.
As for `COc1cccc2c1C(=O)c1c(O)c3c(c(O)c1C2=O)C[C@@](O)(C(=O)CO)C[C@@H]3O[C@H]1C[C@H](N)[C@H](O)[C@H](C)O1` [doxorubicin], the “intracellular accumulation of doxorubicin” value in test [7] and in [8] was “increased” each time. Besides, the “synergy of TTFields plus drug” value with MDA-MB-235 cells was “Evidence of synergy”. For the same compound, the “sensitivity of cells to drug” value with MDA-MB-235 cells (setting [10]) is reported as “improves the sensitivity”. The “increase of intracellular accumulation of doxorubicin” value in the test with MES-SA cells is on record as “more than 2 ×”.
In the case of `O=C1c2c(O)ccc(O)c2C(=O)c2c(NCCNCCO)ccc(NCCNCCO)c21` [mitoxantrone], the “intracellular accumulation of mitoxantrone” value is recorded as “increased” with MCF-7 cells, wild type and “increased” in [9].

(Values after patent US20230009366A1, “Using Alternating Electric Fields at Different Frequencies to Increase Permeability of the Blood Brain Barrier and also to Provide Other Benefits” (Novocure GmbH, priority 2021, published 2023).)
